Measured values published in the Kinase Knowledgebase extract (Sharma et al. 2016).

Key:
[1] = target: CDK2 (UniProt P24941); experiment: Enzyme Assay
[2] = target: CDK2 (UniProt P24941); experiment: Enzyme Assay; remark: listed apart in the source

| IC50 [1] [µM] | IC50 [2] [µM] | SMILES |
| --- | --- | --- |
| 18 | 0.015 | CC(C)(C)n1nc(-c2cccc3ccccc23)c2c(N)ncnc21 |
| 29 | 1.9 | COC(=O)[C@@]1(O)C[C@H]2O[C@]1(C)n1c3ccccc3c3c4c(c5c6ccccc6n2c5c31)C(=O)N[C@H]4C(C)C |
| 10 | 10 | COC(=O)[C@@]1(O)C[C@H]2O[C@]1(C)n1c3ccccc3c3c4c(c5c6ccccc6n2c5c31)C(=O)N[C@@H]4Cc1ccccc1 |
| 3.7 |  | COC(=O)[C@@]1(O)C[C@H]2O[C@]1(C)n1c3ccccc3c3c4c(c5c6ccccc6n2c5c31)C(=O)N[C@H]4CCc1ccccc1 |
| 1 | 0.15 | COC(=O)[C@@]1(O)C[C@H]2O[C@]1(C)n1c3ccccc3c3c4c(c5c6ccccc6n2c5c31)C(=O)N[C@H]4Cc1ccccc1 |
| 5.8 | > 3.7 | CCC(C)[C@@H]1NC(=O)c2c1c1c3ccccc3n3c1c1c2c2ccccc2n1[C@H]1C[C@](O)(C(=O)OC)[C@]3(C)O1 (stereo partly drawn) |
| 22 | 0.07 | COC(=O)[C@@]1(O)C[C@H]2O[C@]1(C)n1c3ccccc3c3c4c(c5c6ccccc6n2c5c31)C(=O)N[C@H]4CC(C)C |
